Data on four molecules can be found in patent US20260315604A1, “OTUB1 Small-Molecule Binders and OTUB1-recruiting Deubiquitinase-targeting Chimeras (DUBTACs)” (ICAHN SCHOOL OF MEDICINE AT MOUNT SINAI, priority 2023, published 2026).

Experiment [1] concerns the target T1, Human OTUB1 wild-type (Homo sapiens, UniProt Q96FW1).
T1 construct: His tag (N); made in house; host or cells: E. coli BL21-CodonPlus (DE3)-RIPIL
Briefly: Covalent modification of OTUB1 (adduct formation), mass spectrometry-based assay (OTUB1 covalent binders; selected CFTR or cGAS based bivalent compounds). The format is binding. The settings on record: covalent adduct formation with OTUB1 protein. The essentials:
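His-tagged human OTUB1 (10 μM), E. coli-expressed, incubated with compound (2500 μM) in 50 mM Tris-HCl pH 7.5, 150 mM NaCl, 0.5 mM TCEP for 1 h at room temperature. Adduct detected by intact-protein LC/ESI-TOF mass spectrometry after buffer exchange; duplicates.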

Experiment [2] has as its system OTUB1. As to conditions: background statement; cited from earlier work.
Experiment [3] relates to OTUB1. As to conditions: background statement; cited from earlier work. This is another data set of the same source.
Experiment [4] has as its target T2, cGAS and OTUB1 (Homo sapiens, UniProt Q8N884+Q96FW1).
T2 construct: other panels use HeLa cells; recombinant His-OTUB1 from E. coli described
The experiment can be described thus: cGAS co-elution with OTUB1. The format is binding. The settings on record: in the presence of compound; FIG. 6F.

T2 sequence (Q8N884 whole entry): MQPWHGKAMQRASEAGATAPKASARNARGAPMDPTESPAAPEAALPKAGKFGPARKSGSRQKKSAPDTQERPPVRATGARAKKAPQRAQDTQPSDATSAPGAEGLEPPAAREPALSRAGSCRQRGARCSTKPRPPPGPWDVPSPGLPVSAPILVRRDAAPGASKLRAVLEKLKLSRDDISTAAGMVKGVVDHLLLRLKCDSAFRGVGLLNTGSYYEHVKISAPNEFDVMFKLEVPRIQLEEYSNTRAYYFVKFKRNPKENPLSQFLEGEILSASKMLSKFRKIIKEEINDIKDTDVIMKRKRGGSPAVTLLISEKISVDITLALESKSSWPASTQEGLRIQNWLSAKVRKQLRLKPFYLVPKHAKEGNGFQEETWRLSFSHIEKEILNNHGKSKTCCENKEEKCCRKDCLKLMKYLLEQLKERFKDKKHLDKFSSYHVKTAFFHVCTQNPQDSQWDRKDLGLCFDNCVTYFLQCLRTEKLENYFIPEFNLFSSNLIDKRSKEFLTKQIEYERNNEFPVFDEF
T2 sequence (Q96FW1 whole entry): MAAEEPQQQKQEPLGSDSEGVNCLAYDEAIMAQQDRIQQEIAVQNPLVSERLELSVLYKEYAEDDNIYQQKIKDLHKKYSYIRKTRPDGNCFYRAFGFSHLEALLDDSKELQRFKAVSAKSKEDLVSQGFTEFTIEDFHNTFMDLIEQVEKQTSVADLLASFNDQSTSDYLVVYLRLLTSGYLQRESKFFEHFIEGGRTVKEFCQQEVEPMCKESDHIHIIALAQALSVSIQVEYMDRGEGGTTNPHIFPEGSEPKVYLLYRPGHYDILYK
T1 sequence (Q96FW1 whole entry): as above

Consider `C=CC(=O)N1CCN(c2ccc(C)o2)C(=O)C1` [EN523, reference compound], for which the “% of OTUB1 modified” value in experiment [1] turned out to be 40%. Moreover, in experiment [2], the “binding affinity to OTUB1” value is reported as “low binding affinity to OTUB1”.

Take `Cc1ccc(S(=O)(=O)Nc2cc(C(F)(F)F)ccc2C(=O)Nc2nc(-c3ccccc3)cs2)cc1` [ML364]: the “inhibition of the enzymatic activity of OTUB1” value in experiment [3] was “inhibit the enzymatic activity of OTUB1”. Regarding `CN(C)C/C=C/C(=O)N1CCN(c2ccc(CCC(=O)NCCCCCCCCCNC(=O)Cn3ccc(-c4cc(Cl)c(Cl)c5[nH]c6c(c45)CN(C(=O)CO)CC6)n3)s2)C(=O)C1` [MS7829], the “co-elution of cGAS with OTUB1” value in experiment [4] is “cGAS co-elutes with OTUB1”. Same read-out and setting: the result for `CN(C)C/C=C/C(=O)N1CCN(c2ccc(CCNC(=O)CCCCCCCCCC(=O)NCCn3ccc(-c4cc(Cl)c(Cl)c5[nH]c6c(c45)CN(C(=O)CO)CC6)n3)s2)C(=O)C1` [mS8588, (E)-N1-(2-(3-(6,7-dichloro-2-(2-hydroxyacetyl)-2,3,4,5-tetrahydro-1H-pyrido[4,3-b]indol-9-yl)-1H-pyrazol-1-yl)ethyl)-N11-(2-(5-(4-(4-(dimethylamino)but-2-enoyl)-2-oxopiperazin-1-yl)thiophen-2-yl)ethyl)undecanediamide] reads “cGAS co-elutes with OTUB1”.
